In patent publication US4882234A, “Storage-stable porphin compositions and a method for their manufacture” (Healux, Inc., priority 1986, dated 1989):

Tested on: albino mouse ear vasculature
Assay: Phototoxicity to normal skin vasculature, Evans blue assay in albino mouse ear
Parameters: species or system Swiss-Webster mice
Conditions: in vivo; for M.E.D. (minimum effective dose to damage ear vasculature): 1440 min
Excerpt: The major side effect of hematoporphyrin derivative preparations in tumor phototherapy is the extended phototoxicity to normal skin (by way of the exposed skin vasculature) for a month or longer after injection of therapeutic doses.
The Evans blue assay method assumes that the primary site of photodamage is the vascular system and uses Evans blue (colloidal dye) extravasation through damaged vascular wall into surrounding tissues to measure the relative phototoxicity as the minimum effective dose (M.E.D.) of photosensitizer necessary to cause a statistically significant increase in tissue Evans blue content. The higher the dose of photosensitizer required the lower the phototoxicity. […] This is possibly due in site aggregation and inhibition of the photosensitized reaction.

| Substance | Relative phototoxicity at higher doses | Evans Blue Increase [%] | M.E.D. (minimum effective dose to damage ear vasculature) [mg/kg] |
| --- | --- | --- | --- |
| Photofrin | relative phototoxicity is decreased at higher doses |  |  |
| tetraphenyl porphyrin sulfonate [TPPS] |  | 84 | 2.5 |
| zinc phthalocyanine sulfonate [ZPS] |  | 30 | 22 |
